# Test results as given in patent publication US8883782B2, “Spiro-tetracyclic ring compounds as beta-secretase modulators and methods of use” (Amgen Inc., priority 2010, dated 2014).
# Read-outs that look alike come from different tables or passages of the source.
# How the values were obtained:
# [1] = target: Beta Secretase enzyme (BACE) (Homo sapiens, UniProt P56817); assay: In vitro enzymatic BACE FRET (fluorescence resonance energy transfer) assay; type: biochemical; conditions: average IC50, enzyme assay; read-out: BACE 1 FRET assay
# How it was run: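 Run in 0.05 M acetate pH 4.2 with 10% DMSO final and 100 uM genapol; started by adding 50 nM FRET peptide substrate (fluorophore and quencher flanking the cleavage site), incubated one hour, then stopped with Tris to neutral pH before reading fluorescence.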
# [2] = system: Aβ40 in conditioned medium of cells stably expressing Amyloid Precursor Protein (APP); assay: In vitro BACE cell-based assay (Aβ40 in conditioned medium, sandwich ELISA); conditions: read-out: HEK cell assay
# How it was run: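 Quantification relied on pAb40/6E10 sandwich ELISA with Europium fluorescence counts, and IC50 was fitted versus concentration.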
# [3] = Homo sapiens, HEK293, average IC50, HEK cells
# Beta Secretase enzyme (BACE), sequence (P56817 46-501, species assumed): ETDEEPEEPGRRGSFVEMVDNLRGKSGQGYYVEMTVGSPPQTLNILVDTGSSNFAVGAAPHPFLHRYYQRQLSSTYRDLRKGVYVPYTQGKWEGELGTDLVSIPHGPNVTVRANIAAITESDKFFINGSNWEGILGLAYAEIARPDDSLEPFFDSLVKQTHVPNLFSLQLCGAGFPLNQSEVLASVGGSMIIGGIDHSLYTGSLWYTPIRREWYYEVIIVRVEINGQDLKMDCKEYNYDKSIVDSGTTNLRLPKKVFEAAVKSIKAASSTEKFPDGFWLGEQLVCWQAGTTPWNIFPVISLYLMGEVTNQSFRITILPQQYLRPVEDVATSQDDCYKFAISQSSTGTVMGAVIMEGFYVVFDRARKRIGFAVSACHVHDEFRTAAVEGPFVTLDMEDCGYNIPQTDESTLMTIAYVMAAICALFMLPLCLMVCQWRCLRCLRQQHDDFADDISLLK
SMILES,IC50 [1] [nM],"IC50 [2, 3] [nM]","IC50 ([2]; average IC50, HEK cells) [nM]"
"NC1=NC2(CS1)c1cc(-c3cccnc3F)ccc1Oc1c2cc(Cl)nc1F (stereo not shown) [Example 611, 3-chloro-1-fluoro-7-(2-fluoro-3-pyridinyl)spiro[chromeno[2,3-c]pyridine-5,4′-[1,3]thiazol]-2′-amine]",6.1,2950,–
"COc1ccnc(F)c1-c1ccc2c(c1)[C@@]1(COC(N)=N1)c1cc(C3=CCOCC3)ncc1O2 [Example 612, (5S)-3-(3,6-dihydro-2H-pyran-4-yl)-7-(2-fluoro-4-methoxy-3-pyridinyl)spiro[chromeno[2,3-c]pyridine-5,4′-[1,3]oxazol]-2′-amine]",0.6,3,–
"NC1=N[C@]2(CS1)c1cc(-c3cccnc3F)ccc1Oc1cnc(C3=CCOCC3)cc12 [Example 613, (5R)-3-(3,6-dihydro-2H-pyran-4-yl)-7-(2-fluoro-3-pyridinyl)spiro[chromeno[2,3-c]pyridine-5,4′-[1,3]thiazol]-2′-amine]",227,2560,–
"NC1=N[C@@]2(CS1)c1cc(-c3cccnc3F)ccc1Oc1cnc(C3=CCOCC3)cc12 [Example 614, (5S)-3-(3,6-dihydro-2H-pyran-4-yl)-7-(2-fluoro-3-pyridinyl)spiro[chromeno[2,3-c]pyridine-5,4′-[1,3]thiazol]-2′-amine]",0.3,–,5
"NC1=N[C@@]2(CO1)c1cc(-c3cncc(F)c3)ccc1Oc1c2cc(C2=CCOCC2)nc1F [Example 615, (5S)-3-(3,6-dihydro-2H-pyran-4-yl)-1-fluoro-7-(5-fluoro-3-pyridinyl)spiro[chromeno[2,3-c]pyridine-5,4′-[1,3]oxazol]-2′-amine]",0.3,2,–
"NC1=N[C@@]2(CO1)c1cc(-c3c(F)ccnc3F)ccc1Oc1cnc(C3CCOCC3)cc12 [Example 616, (5S)-7-(2,4-difluoro-3-pyridinyl)-3-(tetrahydro-2H-pyran-4-yl)spiro[chromeno[2,3-c]pyridine-5,4′-[1,3]oxazol]-2′-amine]",17,176,–
"NC1=N[C@@]2(CO1)c1cc(-c3c(F)ccnc3F)ccc1Oc1cnc([C@H]3CCCCO3)cc12 [Example 617, (5S)-7-(2,4-difluoro-3-pyridinyl)-3-((2R)-tetrahydro-2H-pyran-2-yl)spiro[chromeno[2,3-c]pyridine-5,4′-[1,3]oxazol]-2′-amine]",5.2,–,42
"NC1=N[C@]2(CS1)c1cc(-c3cncc(F)c3)ccc1Oc1cnc(C3=CCOCC3)cc12 [Example 618, (5R)-3-(3,6-dihydro-2H-pyran-4-yl)-7-(5-fluoro-3-pyridinyl)spiro[chromeno[2,3-c]pyridine-5,4′-[1,3]thiazol]-2′-amine]",369,6670,–
"NC1=N[C@@]2(CS1)c1cc(-c3cncc(F)c3)ccc1Oc1cnc(C3=CCOCC3)cc12 [Example 619, (5S)-3-(3,6-dihydro-2H-pyran-4-yl)-7-(5-fluoro-3-pyridinyl)spiro[chromeno[2,3-c]pyridine-5,4′-[1,3]thiazol]-2′-amine]",0.4,–,8
"Cc1ccn(-c2cc(F)c3c(c2)[C@]2(COC(N)=N2)c2cc(-c4cccnc4F)ccc2O3)n1 [Example 620, (4S)-4′-fluoro-7′-(2-fluoro-3-pyridinyl)-2′-(3-methyl-1H-pyrazol-1-yl)spiro[1,3-oxazole-4,9′-xanthen]-2-amine]",2.8,68,–
"CC1(C#Cc2cnc3c(c2)[C@]2(COC(N)=N2)c2cc(-c4cnccc4F)c(F)cc2O3)COC1 [Example 621, (5S)-8-fluoro-7-(4-fluoro-3-pyridinyl)-3-((3-methyl-3-oxetanyl)ethynyl)spiro[chromeno[2,3-b]pyridine-5,4′-[1,3]oxazol]-2′-amine]",0.6,5,–
"CC1(C#Cc2cnc3c(c2)[C@@]2(COC(N)=N2)c2cc(-c4cnccc4F)c(F)cc2O3)COC1 [Example 622, (5R)-8-fluoro-7-(4-fluoro-3-pyridinyl)-3-((3-methyl-3-oxetanyl)ethynyl)spiro[chromeno[2,3-b]pyridine-5,4′-[1,3]oxazol]-2′-amine]",105,452,–
"CC1(C#Cc2cnc3c(c2)[C@]2(COC(N)=N2)c2cc(-c4cncc(F)c4)c(F)cc2O3)COC1 [Example 623, (5S)-8-fluoro-7-(5-fluoro-3-pyridinyl)-3-((3-methyl-3-oxetanyl)ethynyl)spiro[chromeno[2,3-b]pyridine-5,4-[1,3]oxazol]-2′-amine]",0.9,9,–
"CC1(C#Cc2cnc3c(c2)[C@@]2(COC(N)=N2)c2cc(-c4cncc(F)c4)c(F)cc2O3)COC1 [Example 624, (5R)-8-fluoro-7-(5-fluoro-3-pyridinyl)-3-((3-methyl-3-oxetanyl)ethynyl)spiro[chromeno[2,3-b]pyridine-5,4′-[1,3]oxazol]-2′-amine]",986,762,–
"CC1(C#Cc2cnc3c(c2)[C@@]2(COC(N)=N2)c2cc(-c4cncc(Cl)c4)c(F)cc2O3)COC1 [Example 625, (5R)-7-(5-chloro-3-pyridinyl)-8-fluoro-3-((3-methyl-3-oxetanyl)ethynyl)spiro[chromeno[2,3-b]pyridine-5,4′-[1,3]oxazol]-2′-amine]",901,2210,–
"CC1(C#Cc2cnc3c(c2)[C@]2(COC(N)=N2)c2cc(-c4cncc(Cl)c4)c(F)cc2O3)COC1 [Example 626, (5S)-7-(5-chloro-3-pyridinyl)-8-fluoro-3-((3-methyl-3-oxetanyl)ethynyl)spiro[chromeno[2,3-b]pyridine-5,4′-[1,3]oxazol]-2′-amine]",0.8,6,–
"N#Cc1cnc2c(c1)C1(CSC(N)=N1)c1cc(-c3cccnc3F)ccc1O2 (stereo not shown) [Example 627, 2′-amino-7-(2-fluoro-3-pyridinyl)spiro[chromeno[2,3-b]pyridine-5,4′-[1,3]thiazole]-3-carbonitrile]",626,1590,–
"CC(C)(C)C#Cc1cnc2c(c1)[C@]1(CSC(N)=N1)c1cc(-c3cncnc3)ccc1O2 [Example 629, (5S)-3-(3,3-dimethyl-1-butyn-1-yl)-7-(5-pyrimidinyl)spiro[chromeno[2,3-b]pyridine-5,4′-[1,3]thiazol]-2′-amine]",0.6,7,–
"NC1=N[C@@]2(CO1)c1cc(-c3cncc(F)c3)ccc1Oc1c2cc(-c2cccnc2)nc1F [Example 630, (5S)-1-fluoro-7-(5-fluoro-3-pyridinyl)-3-(3-pyridinyl)spiro[chromeno[2,3-c]pyridine-5,4′-[1,3]oxazol]-2′-amine]",0.3,11,–
"Cc1ccnn1-c1cc(F)c2c(c1)[C@]1(COC(N)=N1)c1cc(O)ccc1O2 [Example 631, (4S)-2-amino-5′-fluoro-7′-(5-methyl-1H-pyrazol-1-yl)spiro[1,3-oxazole-4,9′-xanthen]-2′-ol]",21.4,184,–
"Cc1ccn(-c2cc(F)c3c(c2)[C@]2(COC(N)=N2)c2cc(-c4cccnc4)ccc2O3)n1 [Example 633, (4S)-4′-fluoro-2′-(3-methyl-1H-pyrazol-1-yl)-7′-(3-pyridinyl)spiro[1,3-oxazole-4,9′-xanthen]-2-amine]",3.9,34,–
"Cc1ccnn1-c1cc(F)c2c(c1)[C@]1(COC(N)=N1)c1cc(-c3cccnc3)ccc1O2 [Example 634, (4S)-4′-fluoro-2′-(5-methyl-1H-pyrazol-1-yl)-7′-(3-pyridinyl)spiro[1,3-oxazole-4,9′-xanthen]-2-amine]",30.3,154,–
"Cc1ccn(-c2cc(F)c3c(c2)[C@]2(COC(N)=N2)c2cc(-c4cncnc4)ccc2O3)n1 [Example 635, (4S)-4′-fluoro-2′-(3-methyl-1H-pyrazol-1-yl)-7′-(5-pyrimidinyl)spiro[1,3-oxazole-4,9′-xanthen]-2-amine]",2.4,23,–
"Cc1ccnn1-c1cc(F)c2c(c1)[C@]1(COC(N)=N1)c1cc(-c3cncnc3)ccc1O2 [Example 636, (4S)-4′-fluoro-2′-(5-methyl-1H-pyrazol-1-yl)-7′-(5-pyrimidinyl)spiro[1,3-oxazole-4,9′-xanthen]-2-amine]",28.8,273,–
"CC(C)(C)C#Cc1cc2c(cn1)Oc1ccc(-c3cccnc3F)cc1C21CSC(N)=N1 (stereo not shown) [Example 637, 3-(3,3-dimethyl-1-butyn-1-yl)-7-(2-fluoro-3-pyridinyl)spiro[chromeno[2,3-c]pyridine-5,4′-[1,3]thiazol]-2′-amine]",2.1,62,–
"NC1=NC2(CS1)c1cc(-c3cccnc3F)ccc1Oc1c2cc(C2=CCOCC2)nc1F (stereo not shown) [Example 638, 3-(3,6-dihydro-2H-pyran-4-yl)-1-fluoro-7-(2-fluoro-3-pyridinyl)spiro[chromeno[2,3-c]pyridine-5,4′-[1,3]thiazol]-2′-amine]",0.6,4,–
"NC1=N[C@@]2(CO1)c1cc(-c3cccnc3)ccc1Oc1c2cc(C2=CCOCC2)nc1F [Example 639, (5S)-3-(3,6-dihydro-2H-pyran-4-yl)-1-fluoro-7-(3-pyridinyl)spiro[chromeno[2,3-c]pyridine-5,4′-[1,3]oxazol]-2′-amine]",0.4,3,–
"NC1=N[C@@]2(CO1)c1cc(-c3cccnc3F)ccc1Oc1c(F)cc(-c3ccc(F)nc3)cc12 [Example 640, (4S)-4′-fluoro-7′-(2-fluoro-3-pyridinyl)-2′-(6-fluoro-3-pyridinyl)spiro[1,3-oxazole-4,9′-xanthen]-2-amine]",1.2,23,–
"COC(C)(C)C#Cc1cnc2c(c1)[C@]1(COC(N)=N1)c1cc(-c3cncc(F)c3)c(F)cc1O2 [Example 641, (5S)-8-fluoro-7-(5-fluoro-3-pyridinyl)-3-(3-methoxy-3-methyl-1-butyn-1-yl)spiro[chromeno[2,3-b]pyridine-5,4′-[1,3]oxazol]-2′-amine]",0.9,13,–
